For one data set, the system named is D283Med cells. Kind of data set: XTT growth inhibition, D283Med. Format: cell-based, human. On the procedure:
(§1) Cell growth inhibition was estimated in exponentially growing D425Med, D283Med and D384Med cells in 96-well plates. Seeding densities of 1 × 10^3, 3 × 10^3 and 3 × 10^3 cells, respectively, ensured exponential growth for the duration of the experiment. At 24 h (D384Med) or 48 h (D283Med and D425Med) after seeding, cells were exposed to varying concentrations of temozolomide, as described in the Results, in the presence or absence of 0.4 μM AG-014699, a concentration previously shown to enhance temozolomide cytotoxicity in adult tumour cell lines ([Thomas et al, 2007]). After 3 days (D425Med and D384Med) or 5 days (D283Med) of culture (equivalent to approximately three cell divisions), the cell viability was quantified using an XTT cell proliferation kit assay (Roche, Mannheim, Germany), according to the manufacturer's instructions. Cell growth was expressed as a percentage in relation to DMSO or 0.4 μM AG-014699-alone controls. The concentration of temozolomide, alone or in combination with AG-014699, that inhibited growth by 50% (GI50) was calculated from computer-generated curves (GraphPad Software, San Diego, CA, USA). The potentiation factor50 (PF50) is defined as the ratio of […]. All data were from at least three independent experiments.

The subject of another data set is D425Med cells. Kind of data set: XTT growth inhibition, D425Med. Type of data set: cell-based, human. On the procedure:
as §1

Data set [1] in a line: Toxicity (body weight loss) in tumour-bearing mice. Type of data set: in vivo, mouse. On the procedure: CD-1 nude mice bearing palpable, established subcutaneous D425Med, D283Med and D384Med xenografts were treated with normal saline (control animals), temozolomide (68 mg kg^−1 per os (p.o.)) or AG-014699 (1 mg kg^−1 i.p.) alone or in combination, daily for 5 days (five mice per group). For drug combinations, AG-014699 was administered immediately after administering temozolomide. Tumour volumes, determined from two-dimensional calliper measurements and the equation a^2 × b/2 (where a is the […] of the tumour), were monitored for the experimental period (up to 100 days), and are presented for each group of mice as median relative tumour volume (RTV) values. Relative tumour volume 1 is the tumour volume on the initial day of treatment (day 0), and RTV4 is the tumour volume four times that on the initial day of treatment. Tumour growth delay (TGD) is defined as the time to RTV4 in drug-treated mice compared with the time to RTV4 in control (vehicle alone) mice. Median tumour volume is shown, rather than the mean, as this is generally accepted as the most statistically reliable representation of the average growth rate of tumours in a small group of mice, if a normal distribution of tumour volumes cannot be assumed. Tumour growth delay was calculated as: median time to RTV4 in treated group−median time to RTV4 in control group. Percentage enhancement was calculated as 100 × (TGD TMZ+AG-014699/TGD TMZ alone)−100 ([Calabrese et al, 2004]).

“Also recorded” adds a separate entry of the source.

On to `CNCc1ccc(-c2[nH]c3cc(F)cc4c3c2CCNC4=O)cc1` [AG-014699], for which the “Sensitisation to temozolomide by AG-014699” value in the data set on D283Med cells (D283Med (MMR-defective), 0.4 μM AG-014699) was 20 fold; with D425Med cells (D425Med (MGMT-deficient), 0.4 μM AG-014699), “not sensitised; also recorded: no sensitisation; also recorded: did not enhance temozolomide sensitivity”. Also, the “Growth inhibition by AG-014699 alone” value is “not growth inhibitory” in the data set on D283Med cells (D283Med, 0.4 μM, data not shown) and “not growth inhibitory” in the data set with D425Med cells (D425Med, 0.4 μM, data not shown). The PF50 in the data set on D283Med cells (D283Med, potentiation of temozolomide by 0.4 μM AG-014699) was determined as 19±4.7; in the data set with D425Med cells (D425Med, potentiation of temozolomide by 0.4 μM AG-014699), 0.7±0.4. The “Toxicity of AG-014699 alone” value in data set [1] (1 mg kg−1 i.p. daily five times) is listed as “not toxic; also recorded: did not cause any marked toxicity”. Moreover, in data set [1] (daily x5, TMZ 68 mg kg−1 p.o., AG-014699 1 mg kg−1 i.p.), the Body weight loss was found to be 1±1%.

These data come from article PMC2990587, “Central nervous system penetration and enhancement of temozolomide activity in childhood medulloblastoma models by poly(ADP-ribose) polymerase inhibitor AG-014699” (British Journal of Cancer, 2010).
